In this assay the test system is RAW264.7 macrophages. The experiment in a line: Intracellular uptake of FITC-rmCIRP by macrophages (flow cytometry, confocal microscopy). In kind it is cell-based, mouse. The following applies: for intracellular FITC-rmCIRP uptake (flow cytometry): RAW264.7, FITC-rmCIRP 1 μg/mL co-incubated with test substance (peptide 10 μg/mL), 1 hour, vs FITC-rmCIRP alone. Here is the method:
FIG. 3. Effects of MOP peptides MOP-3, MOP-8 and MOP-14 on eCIRP. Flow cytometry experiment whereby RAW264.7 macrophages were treated for 1 hour according to respective group: PBS (volume-equivalent), FITC-rmCIRP (1 μg/mL), or a mixture of FITC-rmCIRP (1 μg/mL) with each respective peptide (10 μg/mL) after co-incubating for 30 minutes. Intracellular FITC-rmCIRP was analyzed by flow cytometry. Median fluorescence intensity (MFI) reported as percentage relative to PBS-treated RAW264.7 cells. Data from two independent experiments are expressed as mean±SEM and compared by one-way ANOVA and SNK test. *p<0.05 vs. PBS, #p<0.05 vs. eCIRP.
Computational modeling was used to determine the likely domain of MFG-E8's binding to eCIRP. The known amino acid (AA) sequence of this domain was used to develop and test potential therapeutic peptides. An MFG-E8 derived oligopeptide, MOP3, was developed based on 15 AA from MFG-E8 discoidin 2 domain (mimicking MFG-E8's C-terminal) and tagged with the 3 AA, RGD, (mimicking MFG-E8's binding capacity for the integrin receptor at the N-terminal). Binding of MOP3 to CIRP was quantified using Surface Plasmon Resonance (SPR) analysis. Macrophages (RAW264.7 cells) were treated with FITC-recombinant mouse (rm)-CIRP or co-incubated MOP3 and FITC-rmCIRP with and without a. Br-integrin Ab. After 1 h, cells were fixed and analyzed for intracellular FITC-rmCIRP by flow cytometry. Macrophages were stimulated with rmCIRP or co-incubated mixture of MOP3 and rmCIRP. After 4 h, cell culture supernatants were analyzed for inflammatory cytokine, TNFα.
Mouse macrophage cell line, RAW264.7 cells were obtained from American Type Culture Collection (ATCC) and cultured in DMEM media with 10% FBS, 1% penicillin and streptomycin, and 1% glutamine. Cells were kept in 37° C. incubator under humidified conditions containing 5% CO2.
rmCIRP was labeled using a FITC Conjugation Kit (Abcam, ab188285), and rmMFG-E8 was labeled using Alexa Fluor Conjugation Kit (Abcam, ab269821), both according to respective manufacturer's instructions.
In order to visualize cellular uptake, we initially utilized TRITC-BSA as an internal probe, as BSA is taken up into cells primarily by endocytosis and retained intracellularly after fixation (27, 28). For further visualization of intracellular localization, we utilized LAMP1 primary antibody (as it is distributed among endolysosomal organelles and serves as a marker for lysosomal compartments) (29), and utilized lysotracker in live cell experiments (as it allows for imaging of dynamics of lysosome vesicle movements) (30). RAW264.7 cells were treated in various conditions with rmCIRP, rmMFG-E8, and inhibitory antibody against auß3-integrin (Bioss antibodies, bs-1310R) for 4 hours. Cells were fixed with 4% paraformaldehyde (PFA), washed with 1×PBS, permeabilized using 0.3% Triton x100, and blocked using 5% BSA 100 mM Glycine in PBS prior to primary antibody treatment. After incubation with secondary antibodies, cells were washed and mounted with ProLong Gold antifade reagent (Invitrogen). For live cell imaging, cells remained in treatment conditions and were imaged under CO2. Staining procedures were performed according to the manufacturers' instructions utilizing respective fluorescent dyes and probes. For all imaging, confocal microscopy images were obtained using a Zeiss LSM880 confocal microscope equipped with a 63× objective. Images were quantified and analyzed using Image J, FIJI.(31) Flow cytometry.
To detect changes in internalized eCIRP in the presence of MFG-E8, RAW264.7 cells were seeded in 12-well plates (approximately 3×10^5 cells/well) and were treated with FITC-eCIRP. Treatment groups consisted of FITC-eCIRP, FITC-eCIRP with MFG-E8, FITC-eCIRP with MFG-E8 and αvβ3-integrin antibody (0.5 μg/mL), or FITC-eCIRP with MFG-E8 and IgG isotype (0.5 μg/mL). Similar experiments were conducted with MOP3 instead of MFG-E8 in parallel groups. […]
A general note: In flow cytometry, cells or beads pass a laser one at a time.

From patent US20240197828A1, “Chimeric molecule to treat sepsis and other inflammatory conditions” (THE FEINSTEIN INSTITUTES FOR MEDICAL RESEARCH, priority 2022, published 2024) come the findings set out here.

SMILES strings stand for the structures. “Also recorded” adds a separate entry of the source. Residues, ends and D or L forms follow the SMILES beside them.

For the molecule `CC(C)C[C@H](NC(=O)[C@H](CC(N)=O)NC(=O)[C@H](Cc1c[nH]c2ccccc12)NC(=O)[C@@H](NC(=O)[C@H](CCCCN)NC(=O)[C@H](Cc1ccc(O)cc1)NC(=O)[C@H](CO)NC(=O)[C@H](CO)NC(=O)[C@H](CO)NC(=O)[C@H](CC(=O)O)NC(=O)CNC(=O)[C@@H](N)CCCNC(=N)N)[C@@H](C)O)C(=O)N[C@@H](CCCNC(=N)N)C(=O)N[C@@H](C)C(=O)N[C@@H](Cc1ccccc1)C(=O)NCC(=O)N[C@@H](Cc1c[nH]c2ccccc12)C(=O)N[C@@H](Cc1ccc(O)cc1)C(=O)O` [MOP3, RGDSSSYKTWNLRAFGWY] (H-RGDSSSYKTWNLRAFGWY-OH; N-terminus and C-terminus assumed), the “intracellular FITC-rmCIRP uptake (flow cytometry)” value is reported as “increased intracellular fluorescence; also recorded: significantly increased intracellular rmCIRP uptake”. The “intracellular FITC-rmCIRP uptake (flow cytometry)” value (listed as peptide-3) is reported as “could increase intracellular uptake of FITC-eCIRP”. Moreover, the “intracellular FITC-rmCIRP uptake with αvβ3-integrin blocking antibody (flow cytometry)” value (RAW264.7, αvβ3-integrin antibody 0.5 μg/mL) is reported as “prevented”.
